Data reported in ChEMBL document CHEMBL1201862, “PubChem BioAssay data set” (2004).
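How tested: cells in 96-well plates exposed to compound for 48 hours at five concentrations. GI50: concentration for 50% inhibition of growth.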 Calls of active or inactive are those of the source. No stated cut-off is given here; in the data, active = GI50 up to about 1.1 µM and inactive = higher.

How the values were obtained:
Test in all cases: DTP human tumour cell line panel, 48 h
A498 = test system: A498
ACHN = test system: ACHN
DU-145 = test system: DU-145
HCT-15 = test system: HCT-15
HOP-62 = test system: HOP-62
HOP-92 = test system: HOP-92
Hs-578T = test system: Hs-578T
K562 = test system: K562
MCF7 = test system: MCF7
MOLT-4 = test system: MOLT-4
NCI/ADR-RES = test system: NCI/ADR-RES
OVCAR-4 = test system: OVCAR-4
OVCAR-5 = test system: OVCAR-5
PC-3 = test system: PC-3
SF-295 = test system: SF-295
SF-539 = test system: SF-539
SK-MEL-28 = test system: SK-MEL-28
SK-MEL-2 = test system: SK-MEL-2
SNB-75 = test system: SNB-75
U-251 = test system: U-251

Row | SMILES | GI50 (A498) | GI50 (ACHN) | GI50 (DU-145) | GI50 (HCT-15) [µM] | GI50 (HOP-62) | GI50 (HOP-92) | GI50 (Hs-578T) | GI50 (K562) | GI50 (MCF7) | GI50 (MOLT-4) | GI50 (NCI/ADR-RES) | GI50 (OVCAR-4) | GI50 (OVCAR-5) | GI50 (PC-3) | GI50 (SF-295) | GI50 (SF-539) | GI50 (SK-MEL-28) | GI50 (SK-MEL-2) | GI50 (SNB-75) | GI50 (U-251)
1 | CC1=C(Nc2c(C)cc(O)cc2O)C(=O)C=c2oc3c(c21)C(C)=C(Nc1c(C)cc(O)cc1O)C(=O)C=3 | > 100 µM (inactive) | > 100 µM (inactive) | 54.3 µM (inactive) | 46.6 | 32.8 µM (inactive) | > 100 µM (inactive) | 32 µM (inactive) | 34 µM (inactive) | 26.5 µM (inactive) | 27.4 µM (inactive) | > 100 µM (inactive) | 57.4 µM (inactive) | 47.5 µM (inactive) | 24.2 µM (inactive) | 24.4 µM (inactive) | 19.5 µM (inactive) | 52.5 µM (inactive) | 34.1 µM (inactive) | 25.6 µM (inactive) | 37.8 µM (inactive)
2 | Cn1c(=S)c2nc(SCCN3CCCC3)[nH]c2n(C)c1=O | > 100 µM (inactive) | > 100 µM (inactive) | > 100 µM (inactive) | > 100 | > 100 µM (inactive) | > 100 µM (inactive) | > 100 µM (inactive) | > 100 µM (inactive) | > 100 µM (inactive) | > 100 µM (inactive) | > 100 µM (inactive) | > 100 µM (inactive) | > 100 µM (inactive) | > 100 µM (inactive) | > 100 µM (inactive) | > 100 µM (inactive) | > 100 µM (inactive) | > 100 µM (inactive) | > 100 µM (inactive) | > 100 µM (inactive)
3 | CC(C)(C)NCCC(O)c1cc(C(F)(F)F)nc2c(C(F)(F)F)cccc12 (stereo not given) | 15 µM (inactive) | 8.3 µM (inactive) | 2.38 µM (inactive) | 6.41 | 4.67 µM (inactive) | 12.3 µM (inactive) | 14.2 µM (inactive) | 5.14 µM (inactive) | 12.6 µM (inactive) | 4.12 µM (inactive) | 5.97 µM (inactive) | 12.3 µM (inactive) | 15.2 µM (inactive) | 8.57 µM (inactive) | 8.75 µM (inactive) | 14.7 µM (inactive) | 15.7 µM (inactive) | 11.2 µM (inactive) | 11.1 µM (inactive) | 7.53 µM (inactive)
4 | CC(=N\c1ccncc1)/C(C)=N/c1ccncc1 | 34.4 µM (inactive) | 14.5 µM (inactive) | 53.6 µM (inactive) | 14.4 | 18.5 µM (inactive) | 22.3 µM (inactive) | 28.8 µM (inactive) | 31 µM (inactive) | 16.7 µM (inactive) | 24.4 µM (inactive) | 34.4 µM (inactive) | 11.4 µM (inactive) | 17 µM (inactive) | 19.3 µM (inactive) | 73.5 µM (inactive) | 18.7 µM (inactive) | 29.1 µM (inactive) | 20.7 µM (inactive) | > 100 µM (inactive) | 24.5 µM (inactive)
5 | CC(C)/C(Cl)=N\OC(=O)Nc1ccc(S(N)(=O)=O)cc1 | 17 µM (inactive) | 13.9 µM (inactive) | 17.9 µM (inactive) | 16.6 | > 42.6 µM (inactive) | 5.25 µM (inactive) | 25.2 µM (inactive) | 2.79 µM (inactive) | 12.1 µM (inactive) | 2.32 µM (inactive) | 18.7 µM (inactive) | 25 µM (inactive) | 18.3 µM (inactive) | 18.5 µM (inactive) | 15.7 µM (inactive) | 16.8 µM (inactive) | 16.2 µM (inactive) | 18.7 µM (inactive) | 9.33 µM (inactive) | 19.5 µM (inactive)
6 | COc1cc(C)cc2c1C(=O)C(Br)=CC2=O | 20.1 µM (inactive) | 2.52 µM (inactive) | 18.3 µM (inactive) | 17.4 | 17.8 µM (inactive) | 3.09 µM (inactive) | 29.4 µM (inactive) | 1.93 µM (inactive) | 4.48 µM (inactive) | 2.39 µM (inactive) | 27.3 µM (inactive) | 2.75 µM (inactive) | 19.8 µM (inactive) | 17 µM (inactive) | 16.2 µM (inactive) | 15.2 µM (inactive) | 17.4 µM (inactive) | 14.4 µM (inactive) | 16.9 µM (inactive) | 19.5 µM (inactive)
7 | Cc1ccc([C@H]2CC(=O)C[C@H](c3ccc(C)cc3)C23C(=O)c2ccccc2C3=O)cc1 | > 100 µM (inactive) | 63.4 µM (inactive) | > 100 µM (inactive) | 34.8 | 22.1 µM (inactive) | 13.6 µM (inactive) | 19.9 µM (inactive) | 23.3 µM (inactive) | 17 µM (inactive) | 27 µM (inactive) | 10.1 µM (inactive) | 18.6 µM (inactive) | > 100 µM (inactive) | 14.9 µM (inactive) | 21.1 µM (inactive) | 32.4 µM (inactive) | > 100 µM (inactive) | 31.2 µM (inactive) | 15.8 µM (inactive) | 16.7 µM (inactive)
8 | CC[C@@]1(O)C(=O)OCc2c1cc1n(c2=O)Cc2cc3ccccc3nc2-1 [CAMPTOTHECIN] | 0.0322 µM (active) | < 0.0116 µM (active) | < 0.01 µM (active) | 0.152 | 0.0116 µM (active) | 0.0337 µM (active) | 0.817 µM (active) | 0.0764 µM (active) | 0.0113 µM (active) | < 0.01 µM (active) | 0.012 µM (active) | 0.209 µM (active) | 0.0809 µM (active) | 0.0644 µM (active) | 0.0115 µM (active) | 0.0145 µM (active) | 0.228 µM (active) | 0.298 µM (active) | 0.0272 µM (active) | 0.0111 µM (active)
